From the NIST ThermoML archive (doi:10.1016/j.jct.2013.10.034)

Assay: xn = mol fraction of the nth substance listed
Details: 100 kPa, Liquid; for viscosity: Falling or rolling sphere viscometry; for mass density: Vibrating tube method

CCCC[N+]1(C)CCCCC1.N#C[N-]C#N [1-butyl-1-methylpiperidinium dicyanamide] + O
Details	mass density, 298.15 K [kg/m3]	mass density, 303.15 K [kg/m3]	mass density, 308.15 K [kg/m3]	mass density, 313.15 K [kg/m3]	mass density, 318.15 K [kg/m3]	viscosity, 298.15 K [mPa·s]	viscosity, 303.15 K [mPa·s]	viscosity, 308.15 K [mPa·s]	viscosity, 313.15 K [mPa·s]	viscosity, 318.15 K [mPa·s]
x1 = 0.0936	1007.95	1004.63	1001.56	998.43	995.26	6.144	5.247	4.529	3.946	3.467
x1 = 0.1748	1011.38	1008.21	1005.06	1001.86	998.67	10.16	8.56	7.3	6.291	5.47
x1 = 0.2651	1013.31	1010.2	1007.08	1004.02	1000.91	16.96	14.05	11.81	10.05	8.651
x1 = 0.3581	1014.27	1011.26	1008.27	1005.25	1002.25	24.65	20.16	16.78	14.16	12.11
x1 = 0.4952	1014.9	1012.13	1009.31	1006.34	1003.45	36.93	29.68	24.59	20.59	17.45
x1 = 0.6246	1015.36	1012.52	1009.93	1007.01	1004.15	49.82	40.79	32.52	27.94	23.32
x1 = 0.7878	1015.65	1012.82	1010.41	1007.53	1004.74	72.53	57.58	46	38.87	32.26
x1 = 0.9216	1015.91	1012.88	1010.57	1007.8	1005.06	103.3	79.12	64.15	51.99	42.71
x1 = 1	1016.13	1012.98	1010.65	1007.92	–	123.3	92.97	75.58	60.93	49.79
